ChEMBL document CHEMBL1139311, “Synthesis of biflavones having a 6-O-7'' linkage and effects on cyclooxygenase-2 and inducible nitric oxide synthase” (Bioorg Med Chem Lett, 2009)
pIC50: −log10 of the molar value.

Key:
Format in all cases: cell-based
[1] = target: T1, Nitric oxide synthase, inducible (Mus musculus, UniProt P29477); experiment: Inhibition of iNOS-mediated NO production in LPS-stimulated mouse RAW264.7 cells by Griess method
T1 sequence (P29477 whole entry): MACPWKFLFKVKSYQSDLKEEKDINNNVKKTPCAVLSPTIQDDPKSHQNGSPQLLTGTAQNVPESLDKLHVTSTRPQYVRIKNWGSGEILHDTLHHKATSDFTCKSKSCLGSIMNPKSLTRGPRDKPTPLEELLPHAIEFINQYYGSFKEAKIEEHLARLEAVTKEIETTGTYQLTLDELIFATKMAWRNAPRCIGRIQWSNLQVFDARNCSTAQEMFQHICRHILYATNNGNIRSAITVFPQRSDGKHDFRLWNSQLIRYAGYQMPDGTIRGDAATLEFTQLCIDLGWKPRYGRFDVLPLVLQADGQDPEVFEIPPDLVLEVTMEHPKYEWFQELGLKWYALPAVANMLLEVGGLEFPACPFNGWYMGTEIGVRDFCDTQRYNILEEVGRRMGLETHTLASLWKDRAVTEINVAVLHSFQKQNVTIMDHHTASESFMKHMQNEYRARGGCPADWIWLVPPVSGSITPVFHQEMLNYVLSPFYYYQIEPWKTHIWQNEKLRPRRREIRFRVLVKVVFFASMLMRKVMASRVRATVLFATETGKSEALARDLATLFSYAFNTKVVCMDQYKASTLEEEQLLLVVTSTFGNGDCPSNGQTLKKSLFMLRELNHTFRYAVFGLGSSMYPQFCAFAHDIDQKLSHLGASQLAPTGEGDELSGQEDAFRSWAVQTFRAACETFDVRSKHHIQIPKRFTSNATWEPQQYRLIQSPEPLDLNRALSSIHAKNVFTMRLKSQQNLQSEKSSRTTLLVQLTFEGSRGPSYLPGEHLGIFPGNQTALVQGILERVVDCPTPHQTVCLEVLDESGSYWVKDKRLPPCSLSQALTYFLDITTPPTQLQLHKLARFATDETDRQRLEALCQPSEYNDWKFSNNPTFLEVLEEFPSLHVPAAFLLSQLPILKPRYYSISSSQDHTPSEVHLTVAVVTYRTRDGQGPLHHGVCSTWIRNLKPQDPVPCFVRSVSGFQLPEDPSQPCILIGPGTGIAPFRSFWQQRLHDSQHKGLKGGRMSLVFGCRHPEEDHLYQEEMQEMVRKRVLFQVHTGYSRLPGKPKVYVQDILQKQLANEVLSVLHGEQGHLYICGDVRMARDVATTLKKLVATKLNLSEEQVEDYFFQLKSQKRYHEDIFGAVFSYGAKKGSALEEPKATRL

[2] = target: T2, Prostaglandin G/H synthase 2 (Mus musculus, UniProt Q05769); experiment: Inhibition of COX2-mediated PGE2 production in LPS-stimulated mouse RAW264.7 cells by ELISA
T2 sequence (Q05769 whole entry): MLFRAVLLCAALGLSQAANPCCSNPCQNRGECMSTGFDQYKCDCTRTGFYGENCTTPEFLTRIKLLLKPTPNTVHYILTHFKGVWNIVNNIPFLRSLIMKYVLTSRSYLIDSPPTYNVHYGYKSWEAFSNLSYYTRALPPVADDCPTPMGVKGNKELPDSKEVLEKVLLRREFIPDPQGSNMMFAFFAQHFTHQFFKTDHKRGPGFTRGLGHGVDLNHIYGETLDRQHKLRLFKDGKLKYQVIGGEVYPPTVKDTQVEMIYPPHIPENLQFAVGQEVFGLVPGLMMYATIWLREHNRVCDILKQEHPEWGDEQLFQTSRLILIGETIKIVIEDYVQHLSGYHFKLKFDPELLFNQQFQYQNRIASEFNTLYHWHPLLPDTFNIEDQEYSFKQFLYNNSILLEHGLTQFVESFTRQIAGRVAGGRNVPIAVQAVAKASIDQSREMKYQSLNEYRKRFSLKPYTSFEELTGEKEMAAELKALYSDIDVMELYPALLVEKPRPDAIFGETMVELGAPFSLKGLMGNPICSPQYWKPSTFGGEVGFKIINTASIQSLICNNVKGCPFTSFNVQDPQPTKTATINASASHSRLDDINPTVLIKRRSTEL

[3] = target: T3, Nitric oxide synthase, inducible (Mus musculus) (UniProt P29477); experiment: Inhibition of iNOS-mediated NO production in LPS-stimulated mouse RAW264.7 cells at […]
T3 sequence (whole entry): T1 sequence (P29477 whole entry)

pIC50 [1] | pIC50 [2] | inhibition [3] [%] | SMILES
< 4.30 | 4.30 | – | COc1ccc(-c2cc(=O)c3ccc(Oc4ccc5oc(-c6ccc(OC)cc6OC)cc(=O)c5c4)cc3o2)c(OC)c1
– | < 4.30 | – | COc1ccccc1-c1cc(=O)c2cc(Oc3ccc4c(=O)cc(-c5ccccc5)oc4c3)ccc2o1
4.30 | < 4.30 | – | O=c1cc(-c2ccc(O)cc2)oc2ccc(Oc3ccc4c(=O)cc(-c5ccc(O)cc5O)oc4c3)cc12
< 4.30 | > 5.70 | – | O=c1cc(-c2ccccc2)oc2cc(Oc3ccc4oc(-c5ccccc5)cc(=O)c4c3)ccc12
5.00 | 5.00 | – | O=c1cc(-c2ccc(O)cc2O)oc2cc(Oc3ccc4oc(-c5ccc(O)cc5O)cc(=O)c4c3)ccc12
– | < 4.30 | – | O=c1cc(-c2ccccc2)oc2cc(Oc3ccc4oc(-c5ccc(O)cc5O)cc(=O)c4c3)ccc12
– | 5.70 | – | COc1ccc(-c2cc(=O)c3cc(Oc4ccc5c(=O)cc(-c6ccccc6)oc5c4)ccc3o2)cc1
– | < 4.30 | – | O=c1cc(-c2ccc(O)cc2)oc2cc(Oc3ccc4oc(-c5ccc(O)cc5)cc(=O)c4c3)ccc12
< 4.30 | < 4.30 | – | O=c1cc(-c2ccc(O)cc2)oc2cc(Oc3ccc4oc(-c5ccc(O)cc5O)cc(=O)c4c3)ccc12
– | < 4.30 | – | O=c1cc(-c2ccccc2)oc2cc(Oc3ccc4oc(-c5ccccc5O)cc(=O)c4c3)ccc12
– | – | 92.5 | CC1CCN=C(N)S1 (stereo not drawn)
< 4.30 | < 4.30 | – | COc1ccc(-c2cc(=O)c3ccc(Oc4ccc5oc(-c6ccc(OC)cc6OC)cc(=O)c5c4)cc3o2)cc1
– | 5.70 | – | COc1ccc(-c2cc(=O)c3cc(Oc4ccc5c(=O)cc(-c6ccccc6)oc5c4)ccc3o2)c(OC)c1
< 4.30 | < 4.30 | – | COc1ccc(-c2cc(=O)c3cc(Oc4ccc5c(=O)cc(-c6ccc(OC)cc6OC)oc5c4)ccc3o2)cc1
5.00 | < 4.30 | – | O=c1cc(-c2ccc(O)cc2)oc2cc(Oc3ccc4oc(-c5ccccc5O)cc(=O)c4c3)ccc12
